Our source for the IC50 values is paper PMC3445454, “Broad and Cross-Clade CD4^+ T-Cell Responses Elicited by a DNA Vaccine Encoding Highly Conserved and Promiscuous HIV-1 M-Group Consensus Peptides” (PLoS ONE, 2012).

Numbering of substitutions follows the chain as printed. Read-outs that look alike come from different tables or passages of the source. Ends that are not written are not given here. A value given as a limit tells only on which side of the number the result lay.

Common to all, as to assay: biochemical
Test [1] has as its target HLA-DP DPA1*02:01/DPB1*01:01 (Homo sapiens, UniProt P04440+P20036, F191V/F38Y/F64Y/G113D/G114E/K142R/L158P/L37V/M105V/M116V/M62Q/P115A/Q81R/R125K/R223Q/T114A/T199I/T259P).
The target of the next test is HLA-DR DRB1*10:01 (Homo sapiens, UniProt P01903+P01911, A100R/A169T/D57E/F55L/F60V/F69Y/F76Y/I96L/L162R/M171V/P40V/Q260P/Q39E/Q99R/R195Q/R42F/S149N/S66Y/T210M/V115G/V67A/W38E/Y59R/Y61H). The format is binding.
Another test addresses HLA-DR DRB1*11:01 (Homo sapiens, UniProt P01903+P01911, A100R/A169T/A87E/I96F/K41T/L162R/M171V/P40S/Q125H/Q178H/Q39Y/Q99D/R42S/S66Y/T262R/V115G/W38E). In kind it is binding.
The target in the next test is HLA-DR DRB1*04:05 (Homo sapiens, UniProt P01903+P01911, A100R/A169T/D86S/F76Y/I96L/K127E/L162R/M171V/N62H/P40V/Q125Y/R42H/S133A/S149N/S66Y/V115G/V209L/W38E). The format is binding.
In test [2] the target is T1, HLA-DP DPA1*01:03/DPB1*02:01 (Homo sapiens, UniProt P04440+P20036, A65V/A84D/A85E/K98E).
T1 sequence (P20036 29-260): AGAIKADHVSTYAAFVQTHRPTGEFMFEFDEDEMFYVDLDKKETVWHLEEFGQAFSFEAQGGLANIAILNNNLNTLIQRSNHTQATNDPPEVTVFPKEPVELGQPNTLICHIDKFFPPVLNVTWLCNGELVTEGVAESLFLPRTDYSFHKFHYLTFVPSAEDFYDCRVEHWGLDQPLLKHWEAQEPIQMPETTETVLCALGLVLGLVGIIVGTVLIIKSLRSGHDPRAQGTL
T1 sequence (P04440 30-258 A65V/A84D/A85E/K98E): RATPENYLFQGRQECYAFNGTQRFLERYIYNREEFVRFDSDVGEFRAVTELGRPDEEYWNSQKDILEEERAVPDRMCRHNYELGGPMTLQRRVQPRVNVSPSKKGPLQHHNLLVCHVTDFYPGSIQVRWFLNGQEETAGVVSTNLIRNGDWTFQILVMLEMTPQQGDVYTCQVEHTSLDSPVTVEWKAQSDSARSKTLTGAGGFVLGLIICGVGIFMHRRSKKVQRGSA
The format is binding.

The target in test [3] is T2, HLA-DP DPA1*01:03/DPB1*04:01 (Homo sapiens, UniProt P04440+P20036).
T2 sequence (P20036 29-260): T1 sequence (P20036 29-260)
T2 sequence (P04440 30-258): T1 sequence (P04440 30-258 A65V/A84D/A85E/K98E) with V36A, D55A, E56A, E69K
In kind it is binding.

In test [4] the target is T3, HLA-DP DPA1*01:03/DPB1*20:01 (Homo sapiens, UniProt P04440+P20036, A65V/A84D/A85E/E86D/F38Y/G113D/G114E/G40L/I94L/L37V/M116V/P115A/R125K/T199I).
T3 sequence (P20036 29-260): T1 sequence (P20036 29-260)
T3 sequence (P04440 30-258 L37V/F38Y/G40L/A65V/A84D/A85E/E86D/I94L/G113D/G114E/P115A/M116V/R125K/T199I/V234M): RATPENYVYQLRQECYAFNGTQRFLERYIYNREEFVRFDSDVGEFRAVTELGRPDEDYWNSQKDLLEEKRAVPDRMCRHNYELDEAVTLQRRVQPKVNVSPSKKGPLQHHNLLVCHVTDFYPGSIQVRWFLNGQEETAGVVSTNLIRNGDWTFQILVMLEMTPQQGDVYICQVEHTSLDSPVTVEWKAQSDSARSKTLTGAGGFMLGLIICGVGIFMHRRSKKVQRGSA
The format is binding.

The target of a further test is HLA-DR DRB1*07:01 (Homo sapiens, UniProt P01903+P01911, A100R/A102G/A103Q/D57E/D86V/E43K/F76Y/K127E/L162R/M171V/P40G/Q125H/Q99D/R33Q/R42Y/R54Q/S133A/S66F/T210M/V115G/Y107V/Y59L/Y89S). The format is binding.
The target of another test is HLA-DR DRB1*01:01 (Homo sapiens, UniProt P01903+P01911, A100R/D57E/F55L/F60I/F76Y/I96L/L162R/M171V/P40L/Q125E/R42F/V115G/Y59C). The format is binding.
Another test concerns the target HLA-DR DRB1*15:01 (Homo sapiens, UniProt P01903+P01911). The format is binding.
The target in another test is HLA-DR DRB1*04:01 (Homo sapiens, UniProt P01903+P01911, A100K/A169T/F76Y/I96L/K127E/L162R/M171V/N62H/P40V/Q125Y/R42H/S133A/S149N/S66Y/V115G/V209L/W38E). The format is binding.
The target of another test is HLA-DR DRB3*02:02 (Homo sapiens, UniProt P01903+P79483, A212P/D57E/F66Y/L67A/R103Q/R218S/R40L/S89Y/T80R/V86D/Y55F/Y59H). The format is binding.
HLA-DR DRB3*02:02, sequence (P01903 26-254 limits assumed): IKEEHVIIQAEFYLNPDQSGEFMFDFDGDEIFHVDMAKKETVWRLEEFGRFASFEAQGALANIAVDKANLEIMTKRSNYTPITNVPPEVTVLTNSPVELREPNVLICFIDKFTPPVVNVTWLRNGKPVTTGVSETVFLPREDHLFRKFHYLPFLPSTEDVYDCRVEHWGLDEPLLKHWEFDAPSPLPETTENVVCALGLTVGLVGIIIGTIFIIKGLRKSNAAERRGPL
HLA-DR DRB3*02:02, sequence (P79483 30-266 R40L/Y55F/D57E/Y59H/F66Y/L67A/T80R/V86D/S89Y/R103Q/A212P/R218S limits assumed): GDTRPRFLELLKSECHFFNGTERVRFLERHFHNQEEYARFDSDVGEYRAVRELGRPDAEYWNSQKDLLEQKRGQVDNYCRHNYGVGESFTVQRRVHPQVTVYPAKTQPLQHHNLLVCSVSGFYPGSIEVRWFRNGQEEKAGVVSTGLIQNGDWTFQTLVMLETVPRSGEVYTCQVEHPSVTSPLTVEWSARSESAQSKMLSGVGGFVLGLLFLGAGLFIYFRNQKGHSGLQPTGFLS
The next test has as its target HLA-DR DRB1*16:02 (Homo sapiens, UniProt P01903+P01911, A100R/F76Y/I96L/Q99D/V115G). In kind it is binding.
The target of a further test is HLA-DR DRB1*13:02 (Homo sapiens, UniProt P01903+P01911, A100E/A169T/K41T/L162R/M171V/P40S/Q125H/Q178H/Q39Y/Q99D/R42S/S66N/T262R/V115G/W38E/Y61H). The format is binding.
HLA-DR DRB1*13:02, sequence (P01903 26-254 limits assumed, other chains not shown): as the sequence (P01903 26-254 limits assumed) above
The mark [5] stands for this setting: read-out: Binding capacity/IC50 (nM) DRB1*10:01.
The mark [6] stands for this setting: read-out: Binding capacity/IC50 (nM) DRB1*11:01.
Where [7] appears, read: read-out: Binding capacity/IC50 (nM) DRB1*04:05.
Setting [8] is: read-out: Binding capacity/IC50 (nM) DPA1*01:03 DPB1*20:01.
[9] abbreviates: read-out: Binding capacity/IC50 (nM) DRB1*07:01.
The mark [10] stands for this setting: read-out: Binding capacity/IC50 (nM) DRB1*01:01.
Setting [11] is: read-out: Binding capacity/IC50 (nM) DRB1*04:01.
Where [12] appears, read: read-out: Binding capacity/IC50 (nM) DPA1*01:03 DPB1*02:01.
The mark [13] stands for this setting: read-out: Binding capacity/IC50 (nM) DPA1*01:03 DPB1*04:01.
[14] abbreviates: read-out: Binding capacity/IC50 (nM) DRB3*02:02.
Where [15] appears, read: read-out: Binding capacity/IC50 (nM) DRB1*16:02.
Where [16] appears, read: read-out: Binding capacity/IC50 (nM) DRB1*15:01.

HLA-DR DRB1*11:01, sequence (P01903 26-254 limits assumed, other chains not shown): as the sequence (P01903 26-254 limits assumed) above
HLA-DP DPA1*02:01/DPB1*01:01, sequence (P20036 29-260 A42M/M62Q/Q81R/T114A/K142R/L158P/F191V/T259P, other chains not shown): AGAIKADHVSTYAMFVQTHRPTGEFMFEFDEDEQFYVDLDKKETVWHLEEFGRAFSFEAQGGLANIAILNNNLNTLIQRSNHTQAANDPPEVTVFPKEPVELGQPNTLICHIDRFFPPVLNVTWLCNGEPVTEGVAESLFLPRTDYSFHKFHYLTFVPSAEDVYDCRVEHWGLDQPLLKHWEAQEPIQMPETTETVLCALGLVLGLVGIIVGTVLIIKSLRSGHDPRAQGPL

With LNKIVRMYSPVSILDI-NH2 [p24(138-153)], the IC50 in test [1] turned out to be 26 nM; on HLA-DR DRB1*10:01 (setting [5]) it was 6.6 nM; at HLA-DR DRB1*11:01 (setting [6]), 79 nM; at HLA-DR DRB1*04:05 (setting [7]) it was 49 nM; in [2], 357 nM; in test [3], 47 nM. Besides, the IC50 in test [4] (setting [8]) amounted to 3 nM.
For the molecule `CC[C@H](C)[C@H](NC(=O)CNC(=O)[C@H](CCCCN)NC(=O)[C@H](Cc1c[nH]cn1)NC(=O)[C@H](C)NC(=O)[C@@H]1CCCN1C(=O)[C@@H](NC(=O)[C@H](Cc1c[nH]c2ccccc12)NC(=O)[C@H](CO)NC(=O)[C@H](CC(C)C)NC(=O)[C@H](Cc1ccc(O)cc1)NC(=O)[C@@H](NC(=O)[C@H](CCCCN)NC(=O)[C@H](CCC(=O)O)NC(=O)[C@@H](N)CCCCN)C(C)C)C(C)C)C(=O)NCC(=O)NCC(=O)N[C@@H](CC(N)=O)C(=O)N[C@@H](CCC(=O)O)C(N)=O` [RT(528-546)], the IC50 worked out at 6.3 nM at HLA-DR DRB1*07:01 (setting [9]); 585 nM in [1]; 3150 nM at HLA-DR DRB1*11:01 (setting [6]); 16 nM at HLA-DR DRB1*01:01 (setting [10]); 97 nM at HLA-DR DRB1*15:01; 68 nM on HLA-DR DRB1*04:01 (setting [11]). For the same molecule, the IC50 at HLA-DR DRB1*04:05 (setting [7]) is 41 nM; in test [2] (setting [12]), 45 nM; in [3] (setting [13]), 1390 nM; in [4] it was 6 nM; at HLA-DR DRB3*02:02 (setting [14]) it was 82 nM.
Take DEELLKAVRIIKILYQSNP-NH2 [rev(9-27)]: the IC50 at HLA-DR DRB1*07:01 (setting [9]) amounted to 41 nM; in test [1], 461 nM; on HLA-DR DRB1*10:01 (setting [5]), 3.9 nM; on HLA-DR DRB1*16:02 (setting [15]), 74 nM; at HLA-DR DRB1*11:01 (setting [6]), 2120 nM; on HLA-DR DRB1*01:01 (setting [10]), 7.4 nM. For the same molecule, the IC50 is 13 nM at HLA-DR DRB1*04:01 (setting [11]); 64 nM on HLA-DR DRB1*04:05 (setting [7]); 7 nM in [2]; 637 nM in [3]; 202 nM in test [4] (setting [8]); 4.4 nM at HLA-DR DRB3*02:02 (setting [14]).
In the case of EAVRHFPRPWLHGL-NH2 [vpr(29-42)], the IC50 at HLA-DR DRB1*07:01 is 1390 nM; in [1], 8610 nM; on HLA-DR DRB1*10:01 it was 311 nM; on HLA-DR DRB1*16:02 it was 367 nM; against HLA-DR DRB1*11:01, above 30000 nM; at HLA-DR DRB1*01:01, 71 nM. Besides, the IC50 is 112 nM at HLA-DR DRB1*15:01 (setting [16]); 1290 nM on HLA-DR DRB1*04:01; 2140 nM in test [2] (setting [12]); 17000 nM in test [3]; 31 nM in test [4]; 9490 nM at HLA-DR DRB3*02:02.
In the case of “IRYPLTFGWCFKLVPVDPREVEEA-NH2 [nef(133-156)]”, the IC50 on HLA-DR DRB1*07:01 (setting [9]) is 472 nM; in test [1], 249 nM; at HLA-DR DRB1*16:02 (setting [15]) it was 2740 nM; at HLA-DR DRB1*11:01 (setting [6]), 4540 nM; on HLA-DR DRB1*01:01 (setting [10]), 315 nM; against HLA-DR DRB1*15:01 it was 718 nM. Moreover, the IC50 on HLA-DR DRB1*04:05 (setting [7]) is 398 nM; in [2] (setting [12]) it was 119 nM; in test [3] (setting [13]) it was 44 nM; in [4] (setting [8]), 13000 nM; at HLA-DR DRB1*13:02 (read-out: Binding capacity/IC50 (nM) DRB1*13:02), 4290 nM; at HLA-DR DRB3*02:02 (setting [14]) it was above 30000 nM.
Take VGSLQYLALTALITPKK-NH2 [vif(142-158)]: the IC50 against HLA-DR DRB1*07:01 was determined as 4.1 nM; in test [1] it was 115 nM; against HLA-DR DRB1*11:01, 48 nM; at HLA-DR DRB1*01:01 it was 0.35 nM; at HLA-DR DRB1*15:01 (setting [16]), 3.8 nM; against HLA-DR DRB1*04:01, 6.4 nM. Also, the IC50 is 2.3 nM against HLA-DR DRB1*04:05; 76 nM in test [2] (setting [12]); 33 nM in [3] (setting [13]); 262 nM in [4]; 7.1 nM against HLA-DR DRB1*13:02; 577 nM on HLA-DR DRB3*02:02.
With “NYPIVQNLQGQMVHQAISPR-NH2 [p17(131-132)/p24(1-18)]”, the IC50 amounted to 5420 nM on HLA-DR DRB1*07:01 (setting [9]); 2870 nM in [1]; 59 nM at HLA-DR DRB1*10:01 (setting [5]); 68 nM at HLA-DR DRB1*16:02 (setting [15]); 1130 nM at HLA-DR DRB1*11:01 (setting [6]); 4.4 nM at HLA-DR DRB1*01:01 (setting [10]). The IC50 is 211 nM at HLA-DR DRB1*15:01 (setting [16]); 83 nM on HLA-DR DRB1*04:01 (setting [11]); 428 nM at HLA-DR DRB1*04:05 (setting [7]); 55 nM in test [2] (setting [12]); 1550 nM in [3] (setting [13]); 952 nM in test [4] (setting [8]). The IC50 at HLA-DR DRB3*02:02 (setting [14]) amounted to 2880 nM.
